Paper PMC5571359, “Screening the Medicines for Malaria Venture Pathogen Box across Multiple Pathogens Reclassifies Starting Points for Open-Source Drug Discovery” (Antimicrobial Agents and Chemotherapy, 2017)
Read-outs that look alike come from different tables or passages of the source.

Assays:
[1] = system: T. cruzi C4 β-galactosidase reporter parasite in MRC 5SV2 host cells; conditions: ref Pbox supporting information; read-out: T. cruzi Pbox IC50; cited from earlier work
[2] = system: T. brucei brucei; conditions: ref Pbox supporting information; read-out: T.b. brucei Pbox IC50; cited from earlier work
[3] = system: T. brucei rhodesiense; conditions: ref Pbox supporting information; read-out: T .b. rohdensie Pbox IC50; cited from earlier work
[4] = system: L. infanium (macrophages); design: method as in Pbox supporting information; conditions: ref Pbox supporting information; cited from earlier work
[5] = system: P. falciparum ABS; conditions: cited from earlier work; for EC50: ChEMBL Data; for IC50: read-out: Pf 3D7 Pbox IC50
[6] = system: liver stage; conditions: cited from earlier work
[7] = system: HepG2; conditions: cited from earlier work
[8] = system: T. b. brucei 427 bloodstream trypanosomes; assay: T. b. brucei resazurin viability assay; format: cell-based, Trypanosoma brucei brucei; conditions: Trypanosoma brucei
[9] = system: HEK293 cells; assay: HEK293 resazurin cell cytotoxicity assay; conditions: Homo sapiens
[10] = TCMDC, read-out: TCMDC (ref 93) EX50
[11] = Pf 3D7, ref Pathogen Box supporting information
[12] = liver stage, ref Pathogen Box supporting information, read-out: LIVER STAGE Pbox IC50
[13] = read-out: HepG2 PBox CC50 µM, HepG2 CC50, ref Pathogen Box supporting information
[14] = NITD, read-out: NITD (ref 94) EC50
[15] = P. falciparum 3D7, ref PBox supporting information
[16] = ref Pbox supporting information
[17] = read-out: HepG2 PBox CC50 µM, ref PBox supporting information
[18] = P. falciparum, read-out: TCMDC (ref 93) EX50
[19] = HEK293, read-out: HEK % Inhibition 20uM/IC50 Discovery Biology
[20] = HEK293, read-out: HEK % Inhibition 20uM/IC50 Discovery Biology (IA)

In the case of `Clc1ccc(CN2CCN(C3=NCCN3)CC2)cc1Cl` [MMV689060], the IC50 [1] is given as 6.57 µM, the IC50 [2] is given as 31.6 µM and the IC50 [3] is given as 30.1 µM. The IC50 [4] was over 64 µM.
In the case of `Cc1nnc(NC(=O)c2cn(-c3ccccc3)nc2-c2ccccc2C)o1` [MMV020320], the EC50 [5, 10] is given as 0.57 µM, the IC50 [5, 11] is given as 0.71 µM and the IC50 [6, 12] is given as 0.17 µM. For the same compound, the CC50 [7, 13] was over 10 µM.
For `O=C1Nc2ccc(Br)cc2C12NCCc1c2[nH]c2ccccc12` (stereo not drawn) [MMV006239], the EC50 [5, 14] is given as 0.2 µM, the IC50 [5, 11] is given as 0.51 µM and the IC50 [6, 12] is given as over 10 µM. For the same compound, the CC50 [7, 13] was over 10 µM.
For `CCOc1ccccc1NC(C)C(=O)Nc1cc(C(F)(F)F)ccc1N1CCOCC1` (stereo not drawn) [MMV407834], the IC50 [5, 15] is listed as 0.42 µM, the IC50 [6, 16] is listed as over 10 µM and the CC50 [7, 17] is listed as over 10 µM.
For `Nc1nccc2ccc(Oc3ccncc3)cc12` [MMV026313], the EC50 [5, 18] is listed as 0.48 µM, the IC50 [5, 15] is listed as 0.23 µM and the IC50 [6, 16] is listed as over 10 µM. For the same compound, the CC50 [7, 17] was over 10 µM.
For `COc1ccc(C2=NN(C3CCCCCC3)C(=O)[C@@H]3CC=CC[C@H]23)cc1OCCCCOc1ccc(-c2nn[nH]n2)cc1` [MMV690027], the IC50 ([8]; read-out: T b.brucei Discovery Biology IC50) is listed as 0.5 µM, the IC50 [2] is listed as 0.02 µM and the IC50 [9, 19] is listed as over 20 µM.
For `O=C(NC1CC1)c1ccc(N2CCC(Cc3ccccc3)CC2)nc1` [MMV024397], the EC50 [5, 10] is listed as 0.76 µM, the IC50 [5, 11] is listed as 1.33 µM and the IC50 [6, 12] is listed as 1.41 µM. The CC50 [7, 13] was over 10 µM.
In the case of `Nc1ccc(C(=O)Nc2ccc(-c3nc4ccccc4o3)cc2)cc1` [MMV007920], the EC50 [5, 14] is listed as 0.94 µM, the IC50 [5, 11] is listed as 1.55 µM and the IC50 [6, 12] is listed as over 10 µM. The CC50 [7, 13] was over 10 µM.
For `CN(C)CCNC(=O)N1CCCN(c2ncnc3cc(-c4ccccc4)sc23)CC1` [MMV024195], the EC50 [5, 10] is given as 0.79 µM, the IC50 [5, 11] is given as 1.58 µM and the IC50 [6, 12] is given as 1.97 µM. The CC50 [7, 13] was over 10 µM.
In the case of `CN1CCN(c2nccc3nc(-c4ccc(F)c(F)c4)[nH]c23)CC1` [MMV676260], the IC50 [5, 15] is given as 1.13 µM, the IC50 [6, 16] is given as over 10 µM and the CC50 [7, 17] is given as over 10 µM.
In the case of `OCCc1ccc(Nc2nccc(-c3nnc4ccccn34)n2)cc1` [MMV028694], the IC50 ([8]; PBox compounds, read-out: IC50 T. brucei brucei (Discovery Biology)) is given as 2.39 µM, the EC50 [5, 18] is given as 0.9 µM and the IC50 [5, 15] is given as 1.08 µM. For the same compound, the IC50 [6, 16] was 1.47 µM, the CC50 [7, 17] was 8.1 µM and the IC50 [9, 20] was over 20 µM.
For `CNC(=O)C1Cc2c([nH]c3cc(Cl)ccc23)C2(CCN(CCc3ccccc3)CC2)N1` (stereo not drawn) [MMV031011], the EC50 [5, 18] is given as 0.93 µM, the IC50 [5, 15] is given as 0.86 µM and the IC50 [6, 16] is given as 4.51 µM. The CC50 [7, 17] was over 10 µM and the IC50 [9, 20] was over 20 µM.
For `Cc1ccc(S(=O)(=O)n2cc(-c3ccnc(N)c3)c3cc(Br)cnc32)cc1` [MMV024114], the EC50 [5, 10] is given as 0.9 µM, the IC50 [5, 11] is given as 0.63 µM and the IC50 [6, 12] is given as over 6 µM. For the same compound, the CC50 [7, 13] was over 6 µM and the inhibition at 20 µM [9, 19] was 60%.
In the case of `Cc1ccc(NC(=O)c2cc(S(=O)(=O)NC(C)(C)C)ccc2C)nc1` [MMV020289], the EC50 [5, 10] is given as 0.76 µM, the IC50 [5, 11] is given as 0.93 µM and the IC50 [6, 12] is given as 7.35 µM. For the same compound, the CC50 [7, 13] was over 7.5 µM.
In the case of `CC(=O)Nc1ccc(-c2noc(CC3CCCN(Cc4cccc(F)c4C)C3)n2)cc1` (stereo not drawn) [MMV689061], the IC50 [1] is given as 2.8 µM, the IC50 [2] is given as 32.3 µM and the IC50 [3] is given as 25.1 µM. The IC50 [4] was 1.59 µM.
For `COc1cncc(-c2cncc(N3CCN(c4ccncc4)CC3)n2)c1` [MMV085071], the EC50 ([5]; P. falciparum, read-out: NITD (ref 94) EC50) is listed as 0.08 µM, the IC50 [5, 15] is listed as 0.1 µM and the IC50 [6, 16] is listed as over 7.5 µM. For the same compound, the CC50 [7, 17] was over 10 µM.
For `Cc1cccc(C(=O)Nc2ccnc(N(C)C3CCN(CC(C)C)CC3)c2)c1` [MMV024829], the EC50 [5, 10] is listed as 0.87 µM, the IC50 [5, 11] is listed as 2.1 µM and the IC50 [6, 12] is listed as over 10 µM. For the same compound, the CC50 [7] was over 10 µM.
In the case of `c1cc(C2=NCCN2)cc(-c2cc(-c3ccc(C4=NCCN4)cc3)no2)c1` [MMV688361], the IC50 [1] is listed as over 32 µM, the IC50 [2] is listed as 5.63 µM and the IC50 [3] is listed as 3 µM. The IC50 [4] was over 32 µM and the “HepG2 PBox CC20” value ([7]; HepG2, ref PBox supporting information) was 4.5 µM.
In the case of `c1csc(-c2cnc3sc(NCC4CCOCC4)nn23)c1` [MMV010764], the IC50 [5, 11] is given as 1.37 µM, the IC50 [6, 12] is given as over 10 µM and the CC50 [7, 13] is given as over 10 µM.
In the case of `COc1ccc(CN2CCOc3ccc(C(C)(O)CN(C)C)cc3C2)cc1C` (stereo not drawn) [MMV008439], the EC50 [5, 14] is listed as 0.82 µM, the IC50 [5, 11] is listed as over 2 µM and the IC50 [6, 12] is listed as 0.93 µM. The CC50 [7, 13] was over 10 µM.
